As a reminder, the Ki is a measure of affinity in units of concentration, obtained from inhibition or displacement. What is called IC50 is the midpoint of a concentration-inhibition curve.

One test has as its target GST-MCL-1 (Homo sapiens, UniProt Q07820). As to the kind of experiment: TR-FRET MCL-1 binding assay (competition with probe F-Bak). In short, it runs like this:
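Test compounds, 11 three-fold dilutions from 25 μM final, incubated 2 hours at room temperature with GST-MCL-1, F-Bak probe and Tb-anti-GST antibody. TR-FRET read at 340/35 nm excitation with 520/525 and 495/510 nm emission. Run without human serum and with 10% HS.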
(In general: In TR-FRET formats the signal depends on donor and acceptor labels being close together.)

Test [1] deals with AMO-1 human multiple myeloma tumor cell line. Briefly: AMO-1 cell viability assay (CellTiter-Glo, 24 hours). The class given is cell-based. As to conditions: Homo sapiens, AMO1, 24 h, read-out: AMO-1 Viability IC50 (μM, 10% FBS), 10% FBS, 24 hours of compound treatment. On the technique in general: Cellular ATP, detected with luciferase, serves as a proxy for viable cell number.

For test [2], the system named is NCI-H929 human multiple myeloma tumor cell line. As to the kind of experiment: NCI-H929 cell viability assay (CellTiter-Glo, 24 hours). The class given is cell-based. To be noted: Homo sapiens, NCI-H929, 24 h, read-out: H929 Viability IC50 (μM, 10% FBS), 10% FBS, 24 hours of compound treatment.
Where [3] appears, read: MCL-1 Binding Ki (nM, 10% HS), in the presence of 10% HS (human serum).
Setting [4] is: without HS, read-out: MCL-1 Binding Ki.

Structures are written as SMILES. Like-named read-outs stand apart in the source and are kept apart here.

Chain of GST-MCL-1 (Q07820 whole entry): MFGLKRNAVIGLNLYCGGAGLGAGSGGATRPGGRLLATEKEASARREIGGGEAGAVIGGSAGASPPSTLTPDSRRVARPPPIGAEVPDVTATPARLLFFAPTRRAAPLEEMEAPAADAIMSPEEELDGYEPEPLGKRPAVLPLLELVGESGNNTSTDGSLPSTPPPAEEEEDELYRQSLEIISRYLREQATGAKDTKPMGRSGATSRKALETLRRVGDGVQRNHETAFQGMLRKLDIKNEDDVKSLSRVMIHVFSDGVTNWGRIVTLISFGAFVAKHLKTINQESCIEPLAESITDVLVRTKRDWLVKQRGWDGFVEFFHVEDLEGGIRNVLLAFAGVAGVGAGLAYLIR

Consider `Cc1c(Cl)c2c(Cl)c(C)c1-c1c(-c3ccc(F)cc3)sc3ncnc(c13)O[C@@H](C(=O)O)Cc1cc(ccc1OCc1ccnc(N3C[C@H](O)[C@@H](O)C3)n1)OC[C@@H](CN1CCN(C)CC1)O2` [Example 56, (7R,16R)-19,23-dichloro-10-({2-[(3S,4S)-3,4-dihydroxypyrrolidin-1-yl]pyrimidin-4-yl}methoxy)-1-(4-fluorophenyl)-20,22-dimethyl-16-[(4-methylpiperazin-1-yl)methyl]-7,8,15,16-tetrahydro-18,21-etheno-13,9-(metheno)-6,14,17-trioxa-2-thia-3,5-diazacyclononadeca[1,2,3-cd]indene-7-carboxylic Acid], for which the Ki was found to be 1.18 nM at GST-MCL-1 (setting [3]) and 0.157 nM on GST-MCL-1 (setting [4]). Further, the IC50 in test [1] turned out to be 0.0534 µM; in test [2] it was 0.13 µM.

For `Cc1c(Cl)c2c(Cl)c(C)c1-c1c(-c3ccc(F)cc3)sc3ncnc(c13)O[C@@H](C(=O)O)Cc1cc(ccc1OCc1ccnc(N3CCP(C)(=O)CC3)n1)OC[C@@H](CN1CCN(C)CC1)O2` [Example 25, (7R,16R)-19,23-dichloro-1-(4-fluorophenyl)-20,22-dimethyl-10-{[2-(4-methyl-4-oxo-1,4λ^5-azaphosphinan-1-yl)pyrimidin-4-yl]methoxy}-16-[(4-methylpiperazin-1-yl)methyl]-7,8,15,16-tetrahydro-18,21-etheno-13,9-(metheno)-6,14,17-trioxa-2-thia-3,5-diazacyclononadeca[1,2,3-cd]indene-7-carboxylic Acid], the results for the Ki on GST-MCL-1 (setting [3]) and on GST-MCL-1 (setting [4]) were 5.7 nM and 0.844 nM, respectively. Moreover, the IC50 worked out at 0.0727 µM in test [1] and 0.0808 µM in test [2].

For `Cc1c(Cl)c2c(Cl)c(C)c1-c1c(-c3ccc(F)cc3)sc3ncnc(c13)O[C@@H](C(=O)O)Cc1cc(ccc1OCc1ccnc(N3CCC(C)(CC(=O)O)CC3)n1)OC[C@@H](CN1CCN(C)CC1)O2` [Example 41, (7R,16R)-10-({2-[4-(carboxymethyl)-4-methylpiperidin-1-yl]pyrimidin-4-yl}methoxy)-19,23-dichloro-1-(4-fluorophenyl)-20,22-dimethyl-16-[(4-methylpiperazin-1-yl)methyl]-7,8,15,16-tetrahydro-18,21-etheno-13,9-(metheno)-6,14,17-trioxa-2-thia-3,5-diazacyclononadeca[1,2,3-cd]indene-7-carboxylic Acid], the Ki on GST-MCL-1 (setting [3]) was 1.05 nM; at GST-MCL-1 (setting [4]) it was 0.078 nM. In addition, the figures for the IC50 in test [1] and in test [2] were 0.0159 µM and 0.019 µM, respectively.

On to `Cc1c(Cl)c2c(Cl)c(C)c1-c1c(-c3ccc(F)cc3)sc3ncnc(c13)O[C@@H](C(=O)O)Cc1cc(ccc1OCc1ccnc([C@H]3CC[C@H](CC(=O)O)CC3)n1)OC[C@@H](CN1CCN(C)CC1)O2` [Example 32, (7R,16R)-10-({2-[(1r,4r)-4-(carboxymethyl)cyclohexyl]pyrimidin-4-yl}methoxy)-19,23-dichloro-1-(4-fluorophenyl)-20,22-dimethyl-16-[(4-methylpiperazin-1-yl)methyl]-7,8,15,16-tetrahydro-18,21-etheno-13,9-(metheno)-6,14,17-trioxa-2-thia-3,5-diazacyclononadeca[1,2,3-cd]indene-7-carboxylic Acid], for which the Ki at GST-MCL-1 (setting [3]) was determined as 0.034 nM; on GST-MCL-1 (setting [4]), 0.003 nM. The IC50 in test [1] was found to be 0.00878 µM; in test [2], 0.0143 µM.

Take `CO[C@H]1O[C@H](COc2cccc(-c3nccc(COc4ccc5cc4C[C@@H](C(=O)O)Oc4ncnc6sc(-c7ccc(F)cc7)c(c46)-c4ccc(c(Cl)c4C)O[C@H](CN4CCN(C)CC4)CO5)n3)c2)[C@@H](OC)[C@H](OC)[C@@H]1OC` [Example 8, methyl 6-O-{3-[4-({[(7S,16R,21S)-7-carboxy-19-chloro-1-(4-fluorophenyl)-20-methyl-16-[(4-methylpiperazin-1-yl)methyl]-7,8,15,16-tetrahydro-18,21-etheno-13,9-(metheno)-6,14,17-trioxa-2-thia-3,5-diazacyclononadeca[1,2,3-cd]inden-10-yl]oxy}methyl)pyrimidin-2-yl]phenyl}-2,3,4-tri-O-methyl-a-D-mannopyranoside]: the Ki stood at 111 nM at GST-MCL-1 (setting [3]) and 8.83 nM at GST-MCL-1 (setting [4]). For the same molecule, the IC50 in test [1] was 0.518 µM; in test [2], 0.989 µM.

(Values after US20250313572A1, “MACROCYCLIC MCL-1 INHIBITORS AND METHODS OF USE” (AbbVie Inc., priority 2017, published 2025).)
